For 28 compounds, EC30 results are on record in patent US10758534B2 (Vertex Pharmaceuticals Incorporated, priority 2014, dated 2020).

In the test the target is T1, F508del (Homo sapiens, UniProt P13569, DEL508-508).
T1 construct: expressed in transfected cells
In words: Protocol 1: membrane potential optical assay (FLIPR III, voltage sensing dye), identification of potentiator compounds. Format: cell-based. The settings on record: Table 3, compounds of Table 1. The method in brief:
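Read-out: change in voltage-sensing dye fluorescence (FLIPR III) as a measure of F508del conductance. Temperature-corrected (27° C, 24 hrs) NIH 3T3 cells expressing F508del are pretreated with potentiators, dye-loaded, then stimulated with forskolin under a chloride ion gradient using chloride-free gluconate bath.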

T1 sequence (P13569 with tags, fused parts or gaps DEL508-508): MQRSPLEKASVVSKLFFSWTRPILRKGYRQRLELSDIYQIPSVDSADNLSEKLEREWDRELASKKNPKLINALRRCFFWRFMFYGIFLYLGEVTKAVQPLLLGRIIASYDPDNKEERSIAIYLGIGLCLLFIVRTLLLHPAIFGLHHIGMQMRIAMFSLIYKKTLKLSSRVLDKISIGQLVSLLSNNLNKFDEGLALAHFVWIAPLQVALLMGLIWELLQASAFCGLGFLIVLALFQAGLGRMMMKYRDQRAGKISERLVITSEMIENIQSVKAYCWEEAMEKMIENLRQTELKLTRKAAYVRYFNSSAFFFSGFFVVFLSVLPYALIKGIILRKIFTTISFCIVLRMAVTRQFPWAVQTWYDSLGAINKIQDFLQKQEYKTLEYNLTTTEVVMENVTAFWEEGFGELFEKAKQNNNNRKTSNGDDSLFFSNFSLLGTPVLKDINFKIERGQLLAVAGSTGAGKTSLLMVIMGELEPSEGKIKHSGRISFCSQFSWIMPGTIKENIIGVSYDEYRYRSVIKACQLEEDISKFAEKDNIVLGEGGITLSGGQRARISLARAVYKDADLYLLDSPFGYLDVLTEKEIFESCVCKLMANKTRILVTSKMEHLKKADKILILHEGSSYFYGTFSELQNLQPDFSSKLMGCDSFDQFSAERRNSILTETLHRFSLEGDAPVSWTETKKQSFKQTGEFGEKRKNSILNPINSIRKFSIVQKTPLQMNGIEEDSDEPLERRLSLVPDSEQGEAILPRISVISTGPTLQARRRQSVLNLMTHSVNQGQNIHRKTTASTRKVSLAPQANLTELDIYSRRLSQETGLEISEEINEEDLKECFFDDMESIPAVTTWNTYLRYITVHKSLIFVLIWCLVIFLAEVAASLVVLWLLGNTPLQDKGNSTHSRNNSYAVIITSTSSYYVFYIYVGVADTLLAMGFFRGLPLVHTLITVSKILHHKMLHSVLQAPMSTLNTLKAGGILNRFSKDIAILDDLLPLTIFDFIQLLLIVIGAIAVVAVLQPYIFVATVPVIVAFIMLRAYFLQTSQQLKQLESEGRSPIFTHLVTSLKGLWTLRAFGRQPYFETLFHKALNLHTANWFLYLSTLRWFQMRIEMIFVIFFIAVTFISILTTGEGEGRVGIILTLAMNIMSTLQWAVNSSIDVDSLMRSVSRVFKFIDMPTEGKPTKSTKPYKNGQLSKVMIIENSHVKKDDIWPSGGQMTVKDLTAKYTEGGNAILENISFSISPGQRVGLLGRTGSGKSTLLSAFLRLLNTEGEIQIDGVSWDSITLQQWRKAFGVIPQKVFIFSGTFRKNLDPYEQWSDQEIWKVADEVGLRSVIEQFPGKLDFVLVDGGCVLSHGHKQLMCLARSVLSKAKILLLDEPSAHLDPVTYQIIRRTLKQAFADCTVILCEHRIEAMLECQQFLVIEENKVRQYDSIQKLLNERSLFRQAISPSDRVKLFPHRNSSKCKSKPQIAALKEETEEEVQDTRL

As for `COc1ccccc1-c1ccc(C(=O)NS(=O)(=O)c2cccnc2N)c(N2C[C@@H](C)CC2(C)C)n1` [Compound 1962, N-[(2-amino-3-pyridyl)sulfonyl]-6-(2-methoxyphenyl)-2-[(4S)-2,2,4-trimethylpyrrolidin-1-yl]pyridine-3-carboxamide], the EC30 entry is given as “+++ (“+++” means <3 uM)”.

Regarding `CC1CN(c2ncc(-c3cc(Cl)cc(Cl)c3)cc2C(=O)NS(=O)(=O)c2cccc(N)n2)C(C)(C)C1` (stereo not shown) [Compound 1721, N-[(6-amino-2-pyridyl)sulfonyl]-5-(3,5-dichlorophenyl)-2-(2,2,4-trimethylpyrrolidin-1-yl)pyridine-3-carboxamide], the EC30 entry is given as “+++ (“+++” means <3 uM)”.

For the compound `COc1cccc(OC)c1-c1ccc(C(=O)NS(=O)(=O)c2cccnc2N)c(N2C[C@@H](C)CC2(C)C)n1` [Compound 1994, N-[(2-amino-3-pyridyl)sulfonyl]-6-(2,6-dimethoxyphenyl)-2-[(4S)-2,2,4-trimethylpyrrolidin-1-yl]pyridine-3-carboxamide], the EC30 result is listed as “+++ (“+++” means <3 uM)”.

Consider `CC1CN(c2ncccc2C(=O)NS(=O)(=O)c2cccc(NC(C)c3ccccc3)n2)C(C)(C)C1` (stereo not shown) [Compound 1905, N—[[6-(1-phenylethylamino)-2-pyridyl]sulfonyl]-2-(2,2,4-trimethylpyrrolidin-1-yl)pyridine-3-carboxamide], for which the EC30 entry was “+++ (“+++” means <3 uM)”.

For the compound `CC(C)COc1cc(F)cc(-c2ccc(C(=O)NS(=O)(=O)c3cccc(N)n3)c(OCCCCc3ccccn3)n2)c1` [Compound 1688, N-[(6-amino-2-pyridyl)sulfonyl]-6-(3-fluoro-5-isobutoxy-phenyl)-2-[4-(2-pyridyl)butoxy]pyridine-3-carboxamide], the EC30 entry was “+++ (“+++” means <3 uM)”.

As to `CCc1cccc(-c2ccc(C(=O)NS(=O)(=O)c3cccc(N)n3)c(Oc3c(C)cc(C)cc3C)n2)c1` [Compound 1118, N-[(6-amino-2-pyridyl)sulfonyl]-6-(3-ethylphenyl)-2-(2,4,6-trimethylphenoxy)pyridine-3-carboxamide], the EC30 entry was “+++ (“+++” means <3 uM)”.

Take `CC1CCCC(Oc2cccc(S(=O)(=O)NC(=O)c3cccnc3N3CC(C)CC3(C)C)n2)C1` (stereo not shown) [Compound 1988, N—[[6-(3-methylcyclohexoxy)-2-pyridyl]sulfonyl]-2-(2,2,4-trimethylpyrrolidin-1-yl)pyridine-3-carboxamide]: the EC30 entry is reported as “+++ (“+++” means <3 uM)”.

As to `CC(Oc1nc(N2C[C@@H](C)CC2(C)C)c(C(=O)NS(=O)(=O)c2cccc(N)n2)cc1F)C1CCCC1` (stereo partly drawn) [Compound 1966, N-[(6-amino-2-pyridyl)sulfonyl]-6-(1-cyclopentylethoxy)-5-fluoro-2-[(4S)-2,2,4-trimethylpyrrolidin-1-yl]pyridine-3-carboxamide], the EC30 result was “+++ (“+++” means <3 uM)”.

For the compound `CC(C)(C)c1ccc(C(=O)NS(=O)(=O)c2cccc(N)n2)c(OC2CCC2)n1` [Compound 1154, N-[(6-amino-2-pyridyl)sulfonyl]-6-tert-butyl-2-(cyclobutoxy)pyridine-3-carboxamide], the EC30 result is “++ (“++” means between 3 uM and 10 uM)”.

Consider `CCOc1cccc(-c2ccc(C(=O)NS(=O)(=O)c3cccnc3N)c(N3C[C@@H](C)CC3(C)C)n2)c1` [Compound 1822, N-[(2-amino-3-pyridyl)sulfonyl]-6-(3-ethoxyphenyl)-2-[(4S)-2,2,4-trimethylpyrrolidin-1-yl]pyridine-3-carboxamide], for which the EC30 result is “+++ (“+++” means <3 uM)”.

Take `Cc1ccc(-c2ccc(C(=O)NS(=O)(=O)c3cccnc3N)c(N3C[C@@H](C)CC3(C)C)n2)c(C)c1` [Compound 1871, N-[(2-amino-3-pyridyl)sulfonyl]-6-(2,4-dimethylphenyl)-2-[(4S)-2,2,4-trimethylpyrrolidin-1-yl]pyridine-3-carboxamide]: the EC30 entry is “+++ (“+++” means <3 uM)”.

In the case of `CCCOc1ccc(-c2ccc(C(=O)NS(=O)(=O)c3ccc[nH]c3=O)c(Oc3c(C)cc(C)cc3C)n2)cc1Cl` [Compound 999, 6-(3-chloro-4-propoxy-phenyl)-N-[(2-oxo-1H-pyridin-3-yl)sulfonyl]-2-(2,4,6-trimethylphenoxy)pyridine-3-carboxamide], the EC30 result was “++ (“++” means between 3 uM and 10 uM)”.

As to `CC(C)COc1cc(F)cc(-c2ccc(C(=O)NS(=O)(=O)c3cccc(N)n3)c(OCCC3CCOCC3)n2)c1` [Compound 1579, N-[(6-amino-2-pyridyl)sulfonyl]-6-(3-fluoro-5-isobutoxy-phenyl)-2-(2-tetrahydropyran-4-ylethoxy)pyridine-3-carboxamide], the EC30 entry is on record as “+++ (“+++” means <3 uM)”.

For `CC(C)COc1cc(F)cc(-c2ccc(C(=O)NS(=O)(=O)N3CCC(N)C3)c(N3CC(C)CC3(C)C)n2)c1` (stereo not shown) [Compound 1467, N-(3-aminopyrrolidin-1-yl)sulfonyl-6-(3-fluoro-5-isobutoxy-phenyl)-2-(2,2,4-trimethylpyrrolidin-1-yl)pyridine-3-carboxamide], the EC30 entry was “+++ (“+++” means <3 uM)”.

For `CC#Cc1ccc(C(=O)NS(=O)(=O)c2cccc(N)n2)c(Oc2c(C)cc(C)cc2C)n1` [Compound 1172, N-[(6-amino-2-pyridyl)sulfonyl]-6-prop-1-ynyl-2-(2,4,6-trimethylphenoxy)pyridine-3-carboxamide], the EC30 result is “++ (“++” means between 3 uM and 10 uM)”.

On to `C[C@@H]1CN(c2nc(C3=CCCCO3)ccc2C(=O)NS(=O)(=O)c2cccnc2N)C(C)(C)C1` [Compound 1699, N-[(2-amino-3-pyridyl)sulfonyl]-6-(3,4-dihydro-2H-pyran-6-yl)-2-[(4S)-2,2,4-trimethylpyrrolidin-1-yl]pyridine-3-carboxamide], for which the EC30 entry was “+++ (“+++” means <3 uM)”.

`COc1ncc(-c2ccc(C(=O)NS(=O)(=O)c3cccnc3OC)c(-c3ccc(C)cc3)n2)cc1C` [Compound 861, 6-(6-methoxy-5-methyl-3-pyridyl)-N-[(2-methoxy-3-pyridyl)sulfonyl]-2-(p-tolyl)pyridine-3-carboxamide]: the EC30 result is “++ (“++” means between 3 uM and 10 uM)”.

Turning to `CC(C)Oc1ccc(-c2ccc(C(=O)NS(=O)(=O)c3cccc(N)n3)c(N3C(C)CC(C)C3C)n2)cn1` (stereo not shown) [Compound 925, N-[(6-amino-2-pyridyl)sulfonyl]-6-(6-isopropoxy-3-pyridyl)-2-(2,3,5-trimethylpyrrolidin-1-yl)pyridine-3-carboxamide], the EC30 result is listed as “+++ (“+++” means <3 uM)”.

As to `CC(C)COc1cc(F)cc(-c2ccc(C(=O)NS(=O)(=O)c3cccc(N)n3)c(N3CCC4(CC4)C3)n2)c1` [Compound 1061, N-[(6-amino-2-pyridyl)sulfonyl]-2-(6-azaspiro[2.4]heptan-6-yl)-6-(3-fluoro-5-isobutoxy-phenyl)pyridine-3-carboxamide], the EC30 entry was “+++ (“+++” means <3 uM)”.

Take `Cc1cc(C)c(Oc2nc(C(C)(C)C)ccc2C(=O)NS(=O)(=O)c2cccc(NCCN)n2)c(C)c1` [Compound 1054, N-[[6-(2-aminoethylamino)-2-pyridyl]sulfonyl]-6-tert-butyl-2-(2,4,6-trimethylphenoxy)pyridine-3-carboxamide]: the EC30 result is “+++ (“+++” means <3 uM)”.

For the compound `Cc1cc(OC(C)C)ncc1-c1ccc(C(=O)NS(=O)(=O)c2cccc(N)n2)c(N2[C@H](C)CC[C@@H]2C)n1` [Compound 1514, N-[(6-amino-2-pyridyl)sulfonyl]-2-[(2R,5S)-2,5-dimethylpyrrolidin-1-yl]-6-(6-isopropoxy-4-methyl-3-pyridyl)pyridine-3-carboxamide], the EC30 result was “+++ (“+++” means <3 uM)”.

On to `CC1CN(c2ncccc2C(=O)NS(=O)(=O)c2cccc(Nc3cc(F)c(F)cc3F)n2)C(C)(C)C1` (stereo not shown) [Compound 1796, N—[[6-(2,4,5-trifluoroanilino)-2-pyridyl]sulfonyl]-2-(2,2,4-trimethylpyrrolidin-1-yl)pyridine-3-carboxamide], for which the EC30 result is given as “+++ (“+++” means <3 uM)”.

As to `CC(C)(C)c1ccc(C(=O)NS(=O)(=O)c2cccc(N)n2)c(C2CCCC2)n1` [Compound 1219, N-[(6-amino-2-pyridyl)sulfonyl]-6-tert-butyl-2-cyclopentyl-pyridine-3-carboxamide], the EC30 entry was “++ (“++” means between 3 uM and 10 uM)”.

For `CC(C)COc1cc(F)cc(-c2ccc(C(=O)NS(=O)(=O)c3cccc(N)n3)c(OCCc3ccncc3)n2)c1` [Compound 1605, N-[(6-amino-2-pyridyl)sulfonyl]-6-(3-fluoro-5-isobutoxy-phenyl)-2-[2-(4-pyridyl)ethoxy]pyridine-3-carboxamide], the EC30 result is “+++ (“+++” means <3 uM)”.

Consider `CC(C)Oc1ccc(C(=O)NS(=O)(=O)c2cccc(N)n2)c(N2C[C@@H](C)CC2(C)C)n1` [Compound 1573, N-[(6-amino-2-pyridyl)sulfonyl]-6-isopropoxy-2-[(4S)-2,2,4-trimethylpyrrolidin-1-yl]pyridine-3-carboxamide], for which the EC30 entry is recorded as “+++ (“+++” means <3 uM)”.

In the case of `CC(C)Oc1ccc(-c2ccc(C(=O)NS(=O)(=O)c3cccnc3N)c(N3C[C@@H](C)CC3(C)C)n2)cn1` [Compound 1660, N-[(2-amino-3-pyridyl)sulfonyl]-6-(6-isopropoxy-3-pyridyl)-2-[(4S)-2,2,4-trimethylpyrrolidin-1-yl]pyridine-3-carboxamide], the EC30 entry is listed as “+++ (“+++” means <3 uM)”.

As for `CC1CN(c2ncccc2C(=O)NS(=O)(=O)c2cccc(Oc3ccc4ccccc4n3)n2)C(C)(C)C1` (stereo not shown) [Compound 1989, N—[[6-(2-quinolyloxy)-2-pyridyl]sulfonyl]-2-(2,2,4-trimethylpyrrolidin-1-yl)pyridine-3-carboxamide], the EC30 result is reported as “+++ (“+++” means <3 uM)”.

`CC1CN(c2ncccc2C(=O)NS(=O)(=O)c2cccc(Nc3ccc4[nH]ccc4c3)n2)C(C)(C)C1` (stereo not shown) [Compound 1823, N—[[6-(1H-indol-5-ylamino)-2-pyridyl]sulfonyl]-2-(2,2,4-trimethylpyrrolidin-1-yl)pyridine-3-carboxamide]: the EC30 result is given as “+++ (“+++” means <3 uM)”.
